Test results reported in PubChem BioAssay AID849 (SRMLSC, 2007).
Activity calls are given as the source filed them. No rule for the calls is given here.

System: Saccharomyces cerevisiae lifespan shortening, growth inhibition
Experiment: Saccharomyces cerevisiae growth inhibition potency – dose response (AID 849);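 also: yeast growth read as optical density after two days at 30 degrees C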

`O=C(ONC1=NCCCCC1)c1ccc(Cl)cc1` was tested, and the IC50 was 6.15 µM.

Compound `Oc1c(CN2CCN(c3ccccn3)CC2)cc(Cl)c2cccnc12` has an IC50 of 37.2 µM.

With `N#C/C(=C\c1ccc([N+](=O)[O-])o1)c1nc2ccccc2[nH]1` the IC50 was > 100 µM (inactive).

`COC(=O)Cc1cc(=O)n(-c2nc3ccccc3[nH]2)[nH]1` was tested, and the IC50 was 21.7 µM.

For `COc1cccc2c(=O)c3c(cnn3C)n(C)c12`, the IC50 was 11.7 µM.

With `C=CCSc1nnc2nc3c(nn12)c1cc(C)ccc1n3CC=C` the IC50 was > 100 µM (inactive).

`CCOc1ccc(NCc2nc3ccccc3n2CCOc2ccccc2)cc1` was tested, and the IC50 was > 100 µM (inactive).

For `CCCc1cc(-c2n[nH]c(=S)n2C(C)c2ccccc2)cs1` (centres undefined), the IC50 was > 100 µM (inactive).

For `COc1ccc(C(=O)/C=C/N2CCCCC2)cc1OC`, the IC50 was 21.4 µM.

For `O=C1CN(CC(=O)N2CCCCC2)c2ccccc2O1`, the IC50 was 43.3 µM.

`O=C1c2ccccc2NC(c2ccc(-c3ccc(Br)cc3)o2)N1O` (centres undefined) gave an IC50 of 25 µM.

Compound `OC(COc1ccc2ccccc2c1Br)Cn1cnc(-c2ccccc2)c1` (centres undefined) has an IC50 of 49.3 µM.

Compound `Cc1ccccc1N=Cc1cccc(O)c1O` has an IC50 of 10 µM.

With `CCC1C(=O)N=C(SCC(=O)Nc2ccccc2)NC1=O` (centres undefined) the IC50 was > 100 µM (inactive).

With `COc1ccc(CN2CN(C(C)C)CSC2=S)cc1` the IC50 was 35.3 µM.

For `COc1ccc(-c2cc(=O)n(-c3nc4ccccc4[nH]3)[nH]2)cc1`, the IC50 was 12.5 µM.

Compound `Cc1nc2ccccc2c2c1C(=O)N(C)C2=O` has an IC50 of 10.9 µM.

With `CCSc1ncc(/C=N/Nc2ccc(Cl)cc2)n1C` the IC50 was 36.7 µM.

In the case of `CC(C)CC(=O)/C(=C\c1ccc(Cl)cc1Cl)n1cncn1`, the IC50 is reported as 15.8 µM.

`Cc1ccc(/C=C/C(=O)c2ccccc(=O)c2O)c(C)c1` showed an IC50 of 4.42 µM.

In the case of `CC1Cc2ccccc2N1C(=O)CSC1=NCCS1` (centres undefined), the IC50 is reported as > 100 µM (inactive).

Work on `CCCc1cc(C(=O)Cc2ccc(F)cc2)c(O)cc1O` yielded an IC50 of 48.3 µM.

For `CC1CCCCN1S(=O)(=O)c1coc(C(N)=O)c1` (centres undefined), the IC50 was > 100 µM (inactive).

`CC(Sc1cccc[n+]1[O-])C(=O)Nc1cccc(S(=O)(=O)N2CCOCC2)c1` (centres undefined) showed an IC50 of 6.11 µM.

`O=C(CSc1cccc[n+]1[O-])c1cc2ccccc2o1` gave an IC50 of 2.97 µM.

`C=CCN1C(C(=O)c2ccccc2)=C(OC(=O)COc2ccccc2)c2ccccc2S1(=O)=O` was tested, and the IC50 was 26.9 µM.

In the case of `O=C(NC1CCCCC1)Sc1ccc(Cl)cc1`, the IC50 is reported as > 100 µM (inactive).

Work on `Cc1cc(C)c2c(N=NN3CCOCC3)[nH]nc2n1` yielded an IC50 of 19.9 µM.

With `CCCCSc1nc(C)c(C(C)=O)cc1C#N` the IC50 was > 100 µM (inactive).

For `O=C(O)Cc1ccc2sc(-c3ccccc3)nc2c1`, the IC50 was > 100 µM (inactive).

`CCc1cccc(CC)c1NC(=S)NCc1ccc2[nH]c(C)cc2c1` was tested, and the IC50 was > 100 µM (inactive).

`Cc1conc1NC(c1cccs1)c1ccc2cccnc2c1O` (centres undefined) was tested, and the IC50 was 40.8 µM.

In the case of `CCCc1cc(C(=O)NC2CCCCC2)no1`, the IC50 is reported as > 100 µM (inactive).

Compound `c1ccc(-c2nnc(-c3ccccn3)nc2NC2CCCCC2)cc1` has an IC50 of 12.5 µM.

With `CCOC(=O)C(=NCCCN(C)C)NNc1ccc(Br)cc1` the IC50 was 11.1 µM.

Compound `N#CSCC(=O)c1cccc2ccccc12` has an IC50 of 8.65 µM.

With `Cc1csc(NC(=O)Cc2coc3cc(C)c(C(C)C)cc23)n1` the IC50 was > 100 µM (inactive).

With `Oc1cccc(C=NCc2ccccc2)c1O` the IC50 was 9.17 µM.

`Oc1c(N=Nc2ccccn2)ccc2ccccc12` gave an IC50 of 15.5 µM.

For `O=C1c2cccc3cccc(c23)C(=O)N1c1cccnc1`, the IC50 was 29.5 µM.

For `Brc1ccccc1-c1nnc(CSc2nnc3sc4ccccc4n23)o1`, the IC50 was > 100 µM (inactive).

In the case of `Cc1ccc(CNC(=O)CS(=O)Cc2nc(-c3cccs3)oc2C)cc1` (centres undefined), the IC50 is reported as > 100 µM (inactive).

With `NC(N)=N/N=C/c1ccc(OCc2ccc(Cl)cc2Cl)cc1` the IC50 was > 100 µM (inactive).

With `N#CCSc1nc2ccccc2c2nc3ccccc3n12` the IC50 was 29.3 µM.

`O=c1cc(-c2ccncc2)oc2ccccc12` showed an IC50 of 51.1 µM.

With `CC1CCCC2(C1)NC(=S)c1c(sc3c1CCCC3)N2` (centres undefined) the IC50 was > 100 µM (inactive).

`Fc1ccc(Br)cc1C1C=C(c2cccnc2)Nc2ncnn21` (centres undefined) was tested, and the IC50 was > 100 µM (inactive).

With `Cc1cccc(NC(=O)CC2SC(=O)N(c3ccccc3)C2=O)c1` (centres undefined) the IC50 was > 100 µM (inactive).

In the case of `Cc1nn(-c2ccccc2)c2sc(C(=O)O)cc12`, the IC50 is reported as 47.2 µM.
